# ChEMBL document CHEMBL1126991, “Isatin oximes - A novel series of bioavailable non-NMDA antagonists” (Bioorg Med Chem Lett, 1993)
# Tests used:
# [1] = target: Glutamate receptor ionotropic, kainate
# Description: Tested for the inhibition of binding of [3H]kainate radioligand to Ionotropic glutamate receptor kainate of cortical membranes from rat brain
# Mus musculus [2] = organism: Mus musculus; assay: Tested for the effective dosage required for the protection against AMPA induced seizures; type: functional
# Rattus norvegicus [3] = organism: Rattus norvegicus; assay: Tested for the ability to inhibit NMDA (20 uM) induced depolarizations in rat cortical wedge preparation; type: functional
# [4] = target: Glutamate receptor ionotropic, AMPA (Rattus norvegicus, UniProt P19490+P19491+P19492+P19493); assay: Tested for the inhibition of binding of [3H]AMPA radioligand to Ionotropic glutamate receptor AMPA to cortical membranes from rat brain
# Mus musculus [5] = organism: Mus musculus; assay: Tested for the [Ca2+] i induced elevation using cultured mouse cortical neurons, exposed to 5 uM AMPA for 4 minutes; type: functional
# Mus musculus [6] = organism: Mus musculus; assay: Tested for the [Ca2+] i induced elevation using cultured mouse cortical neurons, exposed to 50 uM NMDA for 4 minutes; type: functional
# Rattus norvegicus [7] = organism: Rattus norvegicus; assay: Tested for the ability to inhibit AMPA (5 uM) induced depolarizations in rat cortical wedge preparation; type: functional
SMILES,IC50 [1] [µM],IC50 (Rattus norvegicus [3]) [µM],IC50 [4] [nM],IC50 (Mus musculus [5]) [µM],IC50 (Mus musculus [6]) [µM],IC50 (Rattus norvegicus [7]) [µM],ED50 (Mus musculus [2]) [mg/kg]
O=C1Nc2c(ccc3c2CCCC3)/C1=N/O,> 30,–,> 30000,–,–,–,> 30
O=Nc1c(O)[nH]c2c3c(c([N+](=O)[O-])cc12)CCCC3,> 30,> 30,8100,> 30,> 30,> 30,> 30
N#Cc1cc2c(cc1[N+](=O)[O-])=NC(=O)C(=O)N=2,–,–,–,–,–,–,10
NS(=O)(=O)c1cccc2c1c([N+](=O)[O-])cc1nc(O)c(O)nc12 [NBQX],–,> 30,–,0.3,> 30,0.3,10

# The next lines start with results.
IC50 [1] [µM],IC50 (Rattus norvegicus [3]) [µM],IC50 [4] [nM],IC50 (Mus musculus [5]) [µM],IC50 (Mus musculus [6]) [µM],IC50 (Rattus norvegicus [7]) [µM],SMILES,ED50 (Mus musculus [2]) [mg/kg]
27,> 30,1800,5.4,> 30,3.5,CN(C)S(=O)(=O)c1cc2c(N=O)c(O)[nH]c2c2c1CCCC2,3
30,> 30,2800,11,> 30,5.2,CNS(=O)(=O)c1cc2c(N=O)c(O)[nH]c2c2c1CCCC2,30
24.5,> 30,2800,3.5,> 30,2.5,NS(=O)(=O)c1cc2c(N=O)c(O)[nH]c2c2c1CCCC2,> 30
